Source: patent US12403128B2, “Compositions and methods for blocking sodium channels” (University of Virginia Patent Foundation, priority 2017, dated 2025)
Counter-ions that a name gives are not always drawn.

Target: Nav1.6 (Homo sapiens, UniProt Q9UQD0)
Experiment: % block of Nav1.6 at 100 μM and IC50 (NaV1.6)
Type: cell-based
Conditions: for inhibition at 100 µM: 100 μM compound; for IC50: NaV1.6, Table 2, MV1060-MV1091, unit inferred, read-out: IC50
Description: Evaluation of Compounds for % Block of Nav1.6 at 100 μM
Compounds of the present invention were tested in an assay for % block of Nav1.6 at a concentration of 100 μM compound. Table 1 also indicates the melting point ranges for some compounds.
Some such compounds correspond to a compound of Formula III, wherein R9 is substituted with a halogen, a nitro or a CF3 group. In comparing MV1089, MV1090 and MV1091, it is shown that compounds of Formula III where R3 is H result in higher % block than when R3 is substituted. e.g., by OCH3. In comparing MV1066, MV1084, MV1085, MV1086, MV1087 and MV1088, it is shown that compounds of Formula III where R9 is halogen, a nitro or a CF3 group result in higher % block than when R9 is OCH3, COOH or CH3.

Chain of Nav1.6 (Q9UQD0 whole entry): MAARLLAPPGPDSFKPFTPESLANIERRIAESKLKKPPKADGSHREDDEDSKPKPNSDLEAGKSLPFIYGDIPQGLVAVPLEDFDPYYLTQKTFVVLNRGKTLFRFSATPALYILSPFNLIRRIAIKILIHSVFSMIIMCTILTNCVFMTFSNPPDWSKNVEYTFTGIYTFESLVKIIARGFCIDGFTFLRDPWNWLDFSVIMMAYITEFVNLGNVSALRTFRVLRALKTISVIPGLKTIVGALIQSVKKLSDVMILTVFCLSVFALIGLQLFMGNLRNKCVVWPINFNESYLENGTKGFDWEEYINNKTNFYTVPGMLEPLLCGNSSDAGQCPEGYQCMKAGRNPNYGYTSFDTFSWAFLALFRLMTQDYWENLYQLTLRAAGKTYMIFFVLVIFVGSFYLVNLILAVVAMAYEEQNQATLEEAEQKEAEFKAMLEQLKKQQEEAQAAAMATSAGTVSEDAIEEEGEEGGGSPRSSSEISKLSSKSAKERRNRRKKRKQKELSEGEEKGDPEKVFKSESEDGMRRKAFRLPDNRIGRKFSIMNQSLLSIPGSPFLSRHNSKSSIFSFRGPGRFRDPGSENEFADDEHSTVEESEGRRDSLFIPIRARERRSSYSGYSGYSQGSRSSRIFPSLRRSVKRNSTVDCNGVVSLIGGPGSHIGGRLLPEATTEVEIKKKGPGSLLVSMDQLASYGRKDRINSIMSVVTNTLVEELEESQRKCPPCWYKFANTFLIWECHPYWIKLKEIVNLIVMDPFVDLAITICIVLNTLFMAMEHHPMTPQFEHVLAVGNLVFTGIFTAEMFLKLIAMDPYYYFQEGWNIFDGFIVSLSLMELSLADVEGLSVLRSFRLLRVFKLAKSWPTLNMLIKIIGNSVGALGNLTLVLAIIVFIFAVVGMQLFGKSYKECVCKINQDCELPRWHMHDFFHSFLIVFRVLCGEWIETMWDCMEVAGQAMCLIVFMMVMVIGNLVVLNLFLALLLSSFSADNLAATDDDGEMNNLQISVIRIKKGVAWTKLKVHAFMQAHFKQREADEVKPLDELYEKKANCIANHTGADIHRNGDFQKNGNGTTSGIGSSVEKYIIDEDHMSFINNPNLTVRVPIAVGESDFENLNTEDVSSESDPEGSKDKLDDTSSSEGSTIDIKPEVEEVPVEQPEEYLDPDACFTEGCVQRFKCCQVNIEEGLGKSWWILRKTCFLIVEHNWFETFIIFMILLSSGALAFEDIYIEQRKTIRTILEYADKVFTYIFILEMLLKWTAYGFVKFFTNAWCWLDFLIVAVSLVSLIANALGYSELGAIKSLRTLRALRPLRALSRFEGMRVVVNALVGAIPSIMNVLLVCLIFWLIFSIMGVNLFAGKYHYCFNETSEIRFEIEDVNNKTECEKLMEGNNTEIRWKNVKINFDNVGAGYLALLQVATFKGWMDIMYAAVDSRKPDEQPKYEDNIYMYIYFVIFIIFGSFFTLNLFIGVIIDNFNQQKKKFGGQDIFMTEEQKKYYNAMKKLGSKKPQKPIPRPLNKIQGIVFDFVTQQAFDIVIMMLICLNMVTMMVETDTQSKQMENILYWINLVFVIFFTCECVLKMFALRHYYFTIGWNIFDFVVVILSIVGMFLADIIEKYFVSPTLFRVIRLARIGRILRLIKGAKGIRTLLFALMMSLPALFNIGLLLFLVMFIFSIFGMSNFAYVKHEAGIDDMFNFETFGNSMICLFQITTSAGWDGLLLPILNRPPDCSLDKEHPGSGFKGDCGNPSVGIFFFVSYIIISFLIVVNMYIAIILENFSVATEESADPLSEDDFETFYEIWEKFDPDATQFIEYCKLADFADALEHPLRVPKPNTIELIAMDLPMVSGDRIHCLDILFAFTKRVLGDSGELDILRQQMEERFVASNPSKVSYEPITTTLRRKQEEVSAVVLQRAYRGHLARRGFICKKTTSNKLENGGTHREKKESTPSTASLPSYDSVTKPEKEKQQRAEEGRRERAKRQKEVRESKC

Compound | inhibition at 100 µM | IC50
c1ccc(-c2nc3ccccc3[nH]2)cc1 [MV1060, 2-Phenyl-benzimidazole] | 30% | > 100 µM
Clc1ccc(-c2nc3ccccc3[nH]2)cc1 [MV1061, 2-(4-chlorophenyl)-1H-1,3-benzodiazole] | 45% | 
Clc1ccccc1-c1nc2ccccc2[nH]1 [MV1068, 2-(2-chlorophenyl)-1H-1,3-benzodiazole] | 75% | 41.6 µM
O=[N+]([O-])c1ccccc1-c1nc2ccccc2[nH]1 [MV1070, 2-(2-nitrophenyl)-1H-1,3-benzodiazole] | 20% | > 100 µM
O=[N+]([O-])c1ccc(-c2nc3ccccc3[nH]2)cc1 [MV1072, 2-(4-nitrophenyl)-1H-1,3-benzodiazole] | 20% | > 100 µM
COc1ccccc1-c1nc2ccccc2[nH]1 [MV1073, 2-(2-methoxyphenyl)-1H-1,3-benzodiazole] | 40% | > 100 µM
FC(F)(F)c1ccccc1-c1nc2ccccc2[nH]1 [MV1075, 2-(2-trifluoromethyl-phenyl)-1H-1,3-benzodiazole] | 20% | > 100 µM
FC(F)(F)c1ccc(-c2nc3ccccc3[nH]2)cc1 [MV1077, 2-(4-trifluoromethyl-phenyl)-1H-1,3-benzodiazole] | 15% | > 100 µM
O=C(O)c1ccccc1-c1nc2ccccc2[nH]1 [MV1078, 2-(1H-1,3-benzodiazol-2-yl)benzoic acid] | 5% | > 100 µM
O=C(O)c1ccc(-c2nc3ccccc3[nH]2)cc1 [MV1080, 4-(1H-1,3-benzodiazol-2-yl)benzoic acid] | 10% | > 100 µM
Cc1ccccc1-c1nc2ccccc2[nH]1 [MV1081, 2-(2-methylphenyl)-1H-1,3-benzodiazole] | 25% | > 100 µM
Cc1ccc(-c2nc3ccccc3[nH]2)cc1 [MV1083, 2-(4-methylphenyl)-1H-1,3-benzodiazole] | 30% | > 100 µM
O=[N+]([O-])c1ccc2nc(-c3ccccc3)[nH]c2c1 [MV1084, 6-nitro-2-phenyl-1H-1,3-benzodiazole] | 70% | 
COc1ccc2nc(-c3ccccc3)[nH]c2c1 [MV1085, 6-methoxy-2-phenyl-1H-1,3-benzodiazole] | 35% | > 100 µM
FC(F)(F)c1ccc2nc(-c3ccccc3)[nH]c2c1 [MV1086, 6-trifluoromethyl-2-phenyl-1H-1,3-benzodiazole] | 90% | 24.7 µM
O=C(O)c1ccc2nc(-c3ccccc3)[nH]c2c1 [MV1087, 2-phenyl-1H-1,3-benzodiazole-6-carboxylic acid] | 0% | > 100 µM

Compound | inhibition at 100 µM | IC50
Cc1ccc2nc(-c3ccccc3)[nH]c2c1 [MV1088, 6-methyl-2-phenyl-1H-1,3-benzodiazole] | 55% | 
O=C(Nc1ccc(-c2c[nH]c(-c3ccccc3)n2)cc1)c1ccccc1 [MV1301, N-(4-[2-PHENYL-1H-IMIDAZOL-4-YL)-PHENYL]-BENZAMIDE HYDROCHLORIDE] | 0% | 
COc1ccc(-c2nc(-c3ccc(NC(=O)c4ccccc4)cc3)c[nH]2)cc1 [MV1302, N-(4-[2-(4-METHOXY-PHENYL-1H-IMIDAZOL-4-YL]-PHENYL)-BENZAMIDE HYDROCHLORIDE] | 20% | 
COc1ccc(C(=O)Nc2ccc(-c3c[nH]c(-c4ccccc4)n3)cc2)cc1 [MV1303, 4-METHOXY-N-[4-[2-PHENYL-1H-IMIDAZOL-4-YL]-PHENYL]-BENZAMIDE HYDROCHLORIDE] | 0% | 
COc1ccc(C(=O)Nc2ccc(-c3c[nH]c(-c4ccc(OC)cc4)n3)cc2)cc1 [MV1304, 4-METHOXY-N-(4-[2-(4-METHOXY-PHENYL)-1H-IMIDAZOL-4-YL]-PHENYL)-BENZAMIDE HYDROCHLORIDE] | 40% | 
O=C(Nc1ccc(-c2c[nH]c(-c3ccccc3)n2)cc1)c1ccc(Cl)cc1 [MV1305, 4-CHLORO-N-[4-(2-PHENYL-1H-IMIDAZOL-4-YL)-PHENYL]-BENZAMIDE HYDROCHLORIDE] | 50% | 
COc1ccc(-c2nc(-c3ccc(NC(=O)c4ccc(Cl)cc4)cc3)c[nH]2)cc1 [MV1306, 4-CHLORO-N-(4-[2-(4-METHOXY-PHENYL)-1H-IMIDAZOL-4-YL]-PHENYL)-BENZAMIDE HYDROCHLORIDE] | 10% | 
O=C(Nc1cccc(-c2c[nH]c(-c3ccccc3)n2)c1)c1ccccc1 [MV1307, N-[3-(2-PHENYL-1H-IMIDAZOL-4-YL)-PHENYL]-BENZAMIDE HYDROCHLORIDE] | 25% | 
COc1ccc(-c2nc(-c3cccc(NC(=O)c4ccccc4)c3)c[nH]2)cc1 [MV1308, N-(3-[2-(4-METHOXY-PHENYL)-1H-IMIDAZOL-4-YL]-PHENYL)-BENZAMIDE HYDROCHLORIDE] | 75% | 
COc1ccc(C(=O)Nc2cccc(-c3c[nH]c(-c4ccccc4)n3)c2)cc1 [MV1309, 4-METHOXY-N-[3-[2-PHENYL-1H-IMIDAZOL-4-YL]-PHENYL]-BENZAMIDE HYDROCHLORIDE] | 75% | 
COc1ccc(C(=O)Nc2cccc(-c3c[nH]c(-c4ccc(OC)cc4)n3)c2)cc1 [MV1310, 4-METHOXY-N-(3-[2-(4-METHOXY-PHENYL)-1H-IMIDAZOL-A-YL]-PHENYL)-BENZAMIDE HYDROCHLORIDE] | 60% | 
O=C(Nc1cccc(-c2c[nH]c(-c3ccccc3)n2)c1)c1ccc(Cl)cc1 [MV1311, 4-CHLORO-N-[3-(2-PHENYL-1H-IMIDAZOL-4-YL)-PHENYL]-BENZAMIDE HYDROCHLORIDE] | 90% | 
COc1ccc(-c2nc(-c3cccc(NC(=O)c4ccc(Cl)cc4)c3)c[nH]2)cc1 [MV1312, 4-CHLORO-N-(3-[2-(4-METHOXY-PHENYL)-1H-IMIDAZOL-4-YL]-PHENYL)-BENZAMIDE HYDROCHLORIDE] | 85% | 
COc1ccc(-c2ncc(C)[nH]2)cc1 [MV1356, 2-(4-METHOXY-PHENYL)-5-METHYL-1H-IMIDAZOLE OXALATE] | 65% | 
COc1ccccc1-c1ncc(C)[nH]1 [MV1358, 2-(2-METHOXY-PHENYL)-5-METHYL-1H-IMIDAZOLE OXALATE] | 50% | 
COc1ccc(-c2nc(C)c(C)[nH]2)cc1 [MV1362, 2-(4-METHOXY-PHENYL)-4,5-DIMETHYL-1H-IMIDAZOLE OXALATE] | 85% | 

The next lines start with the values.

inhibition at 100 µM | IC50 | Compound
65% | 37 µM | Clc1cccc(-c2nc3ccccc3[nH]2)c1 [MV1069, 2-(3-chlorophenyl)-1H-1,3-benzodiazole]
30% | > 100 µM | O=[N+]([O-])c1cccc(-c2nc3ccccc3[nH]2)c1 [MV1071, 2-(3-nitrophenyl)-1H-1,3-benzodiazole]
40% | > 100 µM | COc1cccc(-c2nc3ccccc3[nH]2)c1 [MV1074, 2-(3-methoxyphenyl)-1H-1,3-benzodiazole]
60% |  | FC(F)(F)c1cccc(-c2nc3ccccc3[nH]2)c1 [MV1076, 2-(3-trifluoromethyl-phenyl)-1H-1,3-benzodiazole]
15% | > 100 µM | O=C(O)c1cccc(-c2nc3ccccc3[nH]2)c1 [MV1079, 3-(1H-1,3-benzodiazol-2-yl)benzoic acid]
65% |  | Cc1cccc(-c2nc3ccccc3[nH]2)c1 [MV1082, 2-(3-methylphenyl)-1H-1,3-benzodiazole]
90% | 40.1 µM | COc1ccccc1-c1nc2cc(Cl)ccc2[nH]1 [MV1089, 6-chloro-2-(2-methoxyphenyl]-1H-1,3-benzodiazole]
85% | 29.6 µM | COc1cccc(-c2nc3cc(Cl)ccc3[nH]2)c1 [MV1090, 6-chloro-2-(3-methoxyphenyl)-1H-1,3-benzodiazole]
0% | > 100 µM | COc1ccc(-c2nc3cc(Cl)ccc3[nH]2)cc1 [MV1091, 6-chloro-2-(4-methoxyphenyl)-1H-1,3-benzodiazole]
25% |  | COc1ccc(-c2ncc[nH]2)cc1 [MV1350, 2-(4-METHOXY-PHENYL)-1H-IMIDAZOLE OXALATE]
25% |  | COc1cccc(-c2ncc[nH]2)c1 [MV1351, 2-(3-METHOXY-PHENYL)-1H-IMIDAZOLE OXALATE]
30% |  | COc1ccccc1-c1ncc[nH]1 [MV1352, 2-(2-METHOXY-PHENYL)-1H-IMIDAZOLE OXALATE]
30% |  | Clc1ccc(-c2ncc[nH]2)cc1 [MV1353, 2-(4-CHLORO-PHENYL)-1H-IMIDAZOLE OXALATE]
20% |  | Clc1cccc(-c2ncc[nH]2)c1 [MV1354, 2-(3-CHLORO-PHENYL)-1H-IMIDAZOLE OXALATE]
0% |  | Clc1ccccc1-c1ncc[nH]1 [MV1355, 2-(2-CHLORO-PHENYL)-1H-IMIDAZOLE OXALATE]
90% |  | COc1cccc(-c2ncc(C)[nH]2)c1 [MV1357, 2-(3-METHOXY PHENYL)-5-METHYL-1H-IMIDAZOLE OXALATE]
75% |  | Cc1cnc(-c2ccc(Cl)cc2)[nH]1 [MV1359, 2-(4-CHLORO-PHENYL)-5-METHYL-1H-IMIDAZOLE OXALATE]
70% |  | Cc1cnc(-c2cccc(Cl)c2)[nH]1 [MV1360, 2-(3-CHLORO-PHENYL)-5-METHYL-1H-IMIDAZOLE OXALATE]
0% |  | Cc1cnc(-c2ccccc2Cl)[nH]1 [MV1361, 2-(2-CHLORO-PHENYL)-5-METHYL-1H-IMIDAZOLE OXALATE]
80% |  | COc1cccc(-c2nc(C)c(C)[nH]2)c1 [MV1363, 2-(3-METHOXY-PHENYL)-4,5-DIMETHYL-1H-IMIDAZOLE OXALATE]
